From patent US9783537B2, “3-(4-ethylnylphenyl) pyridopyrimidinone compounds and process for preparation thereof useful as potential anticancer agents” (Council of Scientific & Industrial Research, priority 2013, dated 2017)
Like-named read-outs stand apart in the source and are kept apart here.

Assays:
CCRF-CEM = assay: SRB 48 h growth assay, Leukemia CCRF-CEM; type: cell-based, human; conditions: Homo sapiens
HL-60(TB) = assay: SRB 48 h growth assay, Leukemia HL-60(TB); type: cell-based, human
RPMI-8226 = assay: SRB 48 h growth assay, Leukemia RPMI-8226; type: cell-based, human; conditions: Homo sapiens, RPMI-8226, Leukemia
A549/ATCC = assay: SRB 48 h growth assay, Non-small Cell Lung A549/ATCC; type: cell-based, human; conditions: Homo sapiens, read-out: Log10 LC50 (converted)
NCI-H23 = assay: SRB 48 h growth assay, Non-small Cell Lung NCI-H23; type: cell-based, human; conditions: Homo sapiens, read-out: Log10 LC50 (converted)
NCI-H522 = assay: SRB 48 h growth assay, Non-small Cell Lung NCI-H522; type: cell-based, human; conditions: Homo sapiens
HCT-116 = assay: SRB 48 h growth assay, Colon HCT-116; type: cell-based, human; conditions: Homo sapiens, HCT-116, Colon
KM12 = assay: SRB 48 h growth assay, Colon KM12; type: cell-based, human; conditions: Homo sapiens
SW-620 = assay: SRB 48 h growth assay, Colon SW-620; type: cell-based, human; conditions: Homo sapiens, SW-620, Colon
SNB-19 = assay: SRB 48 h growth assay, CNS SNB-19; type: cell-based, human; conditions: Homo sapiens, SNB-19, CNS, read-out: Log10 LC50 (converted)
SNB-75 = assay: SRB 48 h growth assay, CNS SNB-75; type: cell-based, human; conditions: Homo sapiens, SNB-75, CNS
LOX IMVI = assay: SRB 48 h growth assay, Melanoma LOX IMVI; type: cell-based, human; conditions: Homo sapiens
M14 = assay: SRB 48 h growth assay, Melanoma M14; type: cell-based, human; conditions: Homo sapiens
MDA-MB-435 = assay: SRB 48 h growth assay, Melanoma MDA-MB-435; type: cell-based, human; conditions: Homo sapiens, MDA-MB-435, Melanoma
SK-MEL-5 = assay: SRB 48 h growth assay, Melanoma SK-MEL-5; type: cell-based, human; conditions: Homo sapiens, SK-MEL-5, Melanoma
UACC-62 = assay: SRB 48 h growth assay, Melanoma UACC-62; type: cell-based, human; conditions: Homo sapiens, UACC-62, Melanoma
OVCAR-8 = assay: SRB 48 h growth assay, Ovarian OVCAR-8; type: cell-based, human; conditions: Homo sapiens, OVCAR-8, Ovarian
RXF393 = assay: SRB 48 h growth assay, Renal RXF393; type: cell-based, human; conditions: Homo sapiens
TK-10 = assay: SRB 48 h growth assay, Renal TK-10; type: cell-based, human; conditions: Homo sapiens, TK-10, Renal, read-out: Log10 LC50 (converted)
PC-3 = assay: SRB 48 h growth assay, Prostate PC-3; type: cell-based, human; conditions: Homo sapiens, PC-3, Prostate
MCF7 = assay: SRB 48 h growth assay, Breast MCF7; type: cell-based, human; conditions: Homo sapiens
MDA-MB-231/ATCC = assay: SRB 48 h growth assay, Breast MDA-MB-231/ATCC; type: cell-based, human; conditions: Homo sapiens, read-out: Log10 LC50 (converted)
HS578T = assay: SRB 48 h growth assay, Breast HS578T; type: cell-based, human
BT-549 = assay: SRB 48 h growth assay, Breast BT-549; type: cell-based, human; conditions: Homo sapiens, BT-549, Breast
[1] = tested on: six leukemia cancer cell lines (CCRF-CEM, HL-60, K-562, MOLT-4, SR and RPMI-8226); assay: in vitro anticancer activity, leukemia panel; type: cell-based; conditions: Homo sapiens, exposure at least 48 h, read-out: GI50, range over panel
[2] = in vitro anticancer activity, non-small cell lung panel; type: cell-based; conditions: Homo sapiens; nine non-small cell lung cancer cell lines, exposure at least 48 h; read-out: GI50, range over panel
[3] = in vitro anticancer activity, melanoma panel; type: cell-based; conditions: Homo sapiens; nine melanoma cell lines, exposure at least 48 h; read-out: GI50, range over panel
[4] = tested on: two prostate cancer cell line (PC-3, DU-145); assay: in vitro anticancer activity, prostate panel; type: cell-based; conditions: Homo sapiens; two prostate cancer cell lines, exposure at least 48 h; read-out: GI50, range over panel
[5] = read-out: Growth Inhibition GI50
[6] = read-out: Log10 GI50 (converted)
[7] = read-out: Log10 LC50 (converted)

C#Cc1ccc(-n2c(/C=C/c3ccc(Cl)c(F)c3)nc3ncccc3c2=O)cc1 [4g, (E)-2-(4-chloro-3-fluorostyryl)-3-(4-ethynylphenyl)pyrido[2,3-d]pyrimidin-4(3H)-one]
CC50 (CCRF-CEM; CCKF-CEM, read-out: Log10 LC50 (converted)): > 100000 nM
GI50 (CCRF-CEM; [5]): 290 nM
GI50 (CCRF-CEM; [6]): 288 nM
Log10 TGI50 (HL-60(TB)): >−4.00
GI50 (RPMI-8226; [5]): 250 nM
GI50 (RPMI-8226; [6]): 257 nM
CC50 (RPMI-8226; [7]): > 100000 nM
CC50 (A549/ATCC): > 100000 nM
LC50 (NCI-H23): > 100000 nM
GI50 (NCI-H522; [5]): 270 nM
GI50 (NCI-H522; [6]): 275 nM
GI50 (HCT-116; [5]): 330 nM
GI50 (HCT-116; [6]): 331 nM
GI50 (KM12; [5]): 340 nM
GI50 (KM12; [6]): 347 nM
GI50 (SW-620; [5]): 370 nM
GI50 (SW-620; [6]): 380 nM
CC50 (SW-620; [7]): > 100000 nM
CC50 (SNB-19): > 100000 nM
GI50 (SNB-75; [5]): 340 nM
GI50 (SNB-75; [6]): 339 nM
GI50 (LOX IMVI; [5]): 260 nM
GI50 (LOX IMVI; [6]): 263 nM
GI50 (M14; [5]): 300 nM
GI50 (M14; [6]): 302 nM
GI50 (MDA-MB-435; [5]): 190 nM
GI50 (MDA-MB-435; [6]): 195 nM
CC50 (MDA-MB-435; [7]): > 100000 nM
GI50 (SK-MEL-5; [5]): 220 nM
GI50 (SK-MEL-5; [6]): 229 nM
GI50 (UACC-62; [5]): 480 nM
GI50 (UACC-62; [6]): 490 nM
GI50 (OVCAR-8; [5]): 350 nM
GI50 (OVCAR-8; [6]): 355 nM
CC50 (OVCAR-8; [7]): > 100000 nM
GI50 (RXF393; RXF 393, read-out: Growth Inhibition GI50): 280 nM
GI50 (RXF393; RXF 393, read-out: Log10 GI50 (converted)): 282 nM
CC50 (RXF393; RXF 393, read-out: Log10 LC50 (converted)): > 100000 nM
CC50 (TK-10): > 100000 nM
GI50 (PC-3; [5]): 340 nM
GI50 (PC-3; [6]): 347 nM
CC50 (PC-3; [7]): > 100000 nM
GI50 (MCF7; [5]): 320 nM
GI50 (MCF7; [6]): 324 nM
CC50 (MCF7; [7]): > 100000 nM
CC50 (MDA-MB-231/ATCC): > 100000 nM
Log10 TGI50 (HS578T): >−4.00
GI50 (HS578T; Homo sapiens, Hs-578T, read-out: Growth Inhibition GI50): 410 nM
GI50 (HS578T; Homo sapiens, Hs-578T, read-out: Log10 GI50 (converted)): 417 nM
CC50 (HS578T; Homo sapiens, Hs-578T, read-out: Log10 LC50 (converted)): > 100000 nM
GI50 (BT-549; [5]): 320 nM
GI50 (BT-549; [6]): 324 nM
GI50 [1]: 250 to 540 nM
GI50 [2]: 200 to 580 nM
GI50 [3]: 190 to 540 nM
GI50 [4]: 340 nM
